# Experimental data from patent publication US10294202B2, “Pyrrolidinones as herbicides” (FMC Corporation, priority 2013, dated 2019).
# Legend:
# [1] = test system: chickweed; experiment: Test C postemergence herbicide test; assay type: in vivo, Stellaria media
# Method in brief: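 Response is scored visually on a 0–100 scale (100 = complete control) relative to untreated controls, 13 to 15 days after treatment. Plants were sprayed postemergence at the 1- to 4-leaf stage (2 to 18 cm tall) and kept in a greenhouse.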
# [2] = test system: ragweed; experiment: Test A pre-/postemergence herbicide test; assay type: in vivo, Ambrosia elatior
# Method in brief: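 Approximately 10 days after treatment in the greenhouse, plants were compared with untreated controls and given a 0–100 visual injury rating. Applications: preemergence directed soil spray; postemergence on 2–10 cm plants at the one- to two-leaf stage.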
# [3] = test system: crabgrass, large; experiment: Test C pre-/postemergence herbicide test; assay type: in vivo, Digitaria sanguinalis
# Method in brief: (§1)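 Plants grown and held in a greenhouse for 13 to 15 days post-spray, then rated 0–100 by visual comparison with controls. Pre treatments targeted seeds in loam and sand; post treatments targeted 1- to 4-leaf plants in peat-based potting medium.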
# [4] = test system: pigweed; experiment: Test C pre-/postemergence herbicide test; assay type: in vivo, Amaranthus retroflexus
# Method in brief: as §1
# [5] = test system: lambsquarters; experiment: Test C pre-/postemergence herbicide test; assay type: in vivo, Chenopodium album
# Method in brief: as §1
# [6] = test system: velvetleaf; experiment: Test C pre-/postemergence herbicide test; assay type: in vivo, Abutilon theophrasti
# Method in brief: as §1
# [7] = test system: wheat (winter wheat); experiment: Test C pre-/postemergence herbicide test; assay type: in vivo, Triticum aestivum
# Method in brief: as §1
# [8] = 31 g ai/ha, scale 0 to 100 (0 no effect, 100 complete control)
# [9] = 62 g ai/ha, scale 0 (no effect) to 100 (complete control)
# [10] = 125 g ai/ha, scale 0 to 100 (0 no effect, 100 complete control)
# [11] = 250 g ai/ha, scale 0 to 100 (0 no effect, 100 complete control)
# [12] = Postemergence, 31 g ai/ha, scale 0 to 100 (0 no effect, 100 complete control)
# [13] = Postemergence, 62 g ai/ha, scale 0 (no effect) to 100 (complete control)
# [14] = Postemergence, 125 g ai/ha, scale 0 to 100 (0 no effect, 100 complete control)
# [15] = Postemergence, 250 g ai/ha, scale 0 to 100 (0 no effect, 100 complete control)
# [16] = Preemergence, 31 g ai/ha, scale 0 to 100, 0 is no effect and 100 is complete control
# [17] = Preemergence, 62 g ai/ha, scale 0 to 100 (0 no effect, 100 complete control)
# [18] = Preemergence, 125 g ai/ha, scale 0 to 100 (0 no effect, 100 complete control)
# [19] = Postemergence, 125 g ai/ha, visual rating on 0 to 100 scale (0 no effect, 100 complete control), approx. 10 days
# [20] = Preemergence, 125 g ai/ha, 0 to 100 scale where 0 is no effect and 100 is complete control
# [21] = Preemergence, 500 g ai/ha, visual rating on 0 to 100 scale (0 no effect, 100 complete control)
# [22] = Preemergence, 125 g ai/ha, scale 0 to 100
smiles,measurement,setting,value
O=C1NCC(c2ccc(C(F)(F)F)cc2)C1C(=O)Nc1cccc(F)c1F (racemic) [Compound 202],"Plant response rating, Chickweed",[1]; [8],80
same,"Plant response rating, Chickweed",[1]; [9],80
same,"Plant response rating, Chickweed",[1]; [10],85
same,"Plant response rating, Chickweed",[1]; [11],85
same,"Plant response rating, Ragweed","[2]; 125 g ai/ha, visual rating, 0 to 100 scale, 0 no effect, 100 complete control, approximately 10 days, preemergence",50
same,"Plant response rating, Ragweed","[2]; Postemergence, 125 g ai/ha, 0 to 100 scale, 0 is no effect, 100 is complete control",30
same,"Ragweed plant response rating (0 to 100 scale, 0 is no effect, 100 is complete control)","[2]; Postemergence, 500 g ai/ha",50
same,"Plant response rating, Ragweed","[2]; preemergence, 500 g ai/ha, 0 to 100 scale, 0 is no effect and 100 is complete control",90
same,"Plant response rating, Crabgrass, Large",[3]; [12],30
same,"Plant response rating, Crabgrass, Large",[3]; [13],50
same,"Plant response rating, Crabgrass, Large",[3]; [14],60
same,"Plant response rating, Crabgrass, Large",[3]; [15],75
same,"Crabgrass, Large plant response rating",[3]; [16],90
same,"Crabgrass, Large plant response rating",[3]; [17],95
same,"Plant response rating, Crabgrass, Large",[3]; [18],98
same,"Plant response rating (scale of 0 to 100), Crabgrass, Large","[3]; Preemergence, 250 g ai/ha",98
same,"Plant response rating, Pigweed",[4]; [12],80
same,"Plant response rating, Pigweed",[4]; [13],80
same,"Plant response rating, Pigweed",[4]; [14],85
same,"Plant response rating, Pigweed",[4]; [15],85
same,Pigweed plant response rating,[4]; [16],85
same,Pigweed plant response rating,[4]; [17],85
same,"Plant response rating, Pigweed",[4]; [18],90
same,"Plant response rating (scale of 0 to 100), Pigweed","[4]; Preemergence, 250 g ai/ha",100
same,"Plant response rating, Lambsquarters",[5]; [12],70
same,"Plant response rating, Lambsquarters",[5]; [13],80
same,"Plant response rating, Lambsquarters",[5]; [14],80
same,"Plant response rating, Lambsquarters",[5]; [15],85
same,Lambsquarters plant response rating,[5]; [16],80
same,Lambsquarters plant response rating,[5]; [17],90
same,"Plant response rating, Lambsquarters",[5]; [18],90
same,"Plant response rating (scale of 0 to 100), Lambsquarters","[5]; Preemergence, 250 g ai/ha",100
same,"Plant response rating, Velvetleaf",[6]; [12],10
same,"Plant response rating, Velvetleaf",[6]; [13],20
same,"Plant response rating, Velvetleaf",[6]; [14],30
same,"Plant response rating, Velvetleaf",[6]; [15],55
same,Velvetleaf plant response rating,[6]; [16],10
same,Velvetleaf plant response rating,[6]; [17],30
same,"Plant response rating, Velvetleaf",[6]; [18],50
same,"Plant response rating (scale of 0 to 100), Velvetleaf","[6]; Preemergence, 250 g ai/ha",65
same,"Plant response rating, Wheat",[7]; [12],0
same,"Plant response rating, Wheat",[7]; [13],0
same,"Plant response rating, Wheat",[7]; [14],0
same,"Plant response rating, Wheat",[7]; [15],5
same,Wheat plant response rating,[7]; [16],0
same,Wheat plant response rating,[7]; [17],30
same,"Plant response rating, Wheat",[7]; [18],55
same,"Plant response rating (scale of 0 to 100), Wheat","[7]; Preemergence, 250 g ai/ha",60
O=C1NCC(c2cccc(Br)c2)C1C(=O)Nc1ccc(F)c(F)c1F (centres unmarked) [Compound 310],"Plant response rating, Chickweed",[1]; [8],20
same,"Plant response rating, Chickweed",[1]; [9],45
same,"Plant response rating, Chickweed",[1]; [10],90
same,"Plant response rating, Chickweed",[1]; [11],85
same,"Plant response rating, Ragweed",[2]; [19],20
same,"Plant response rating, Ragweed","[2]; Postemergence, 500 g ai/ha, 0 to 100 scale (0 no effect, 100 complete control)",30
same,"Plant response rating, Ragweed",[2]; [20],0
same,Ragweed plant response rating,[2]; [21],0
same,"Plant response rating, Crabgrass, Large",[3]; [12],0
same,"Plant response rating, Crabgrass, Large",[3]; [13],10
same,"Plant response rating, Crabgrass, Large",[3]; [14],70
same,"Plant response rating, Crabgrass, Large",[3]; [15],70
same,"Crabgrass, Large plant response rating",[3]; [16],90
same,"Crabgrass, Large plant response rating",[3]; [17],90
same,"Plant response rating, Crabgrass, Large",[3]; [22],95
same,"Plant response rating (scale of 0 to 100), Crabgrass, Large","[3]; Preemergence, 250 g ai/ha",95
same,"Plant response rating, Pigweed",[4]; [12],35
same,"Plant response rating, Pigweed",[4]; [13],40
same,"Plant response rating, Pigweed",[4]; [14],60
same,"Plant response rating, Pigweed",[4]; [15],70
same,Pigweed plant response rating,[4]; [16],0
same,Pigweed plant response rating,[4]; [17],5
same,"Plant response rating, Pigweed",[4]; [22],20
same,"Plant response rating (scale of 0 to 100), Pigweed","[4]; Preemergence, 250 g ai/ha",20
same,"Plant response rating, Lambsquarters",[5]; [12],25
same,"Plant response rating, Lambsquarters",[5]; [13],65
same,"Plant response rating, Lambsquarters",[5]; [14],65
same,"Plant response rating, Lambsquarters",[5]; [15],70
same,Lambsquarters plant response rating,[5]; [16],0
same,Lambsquarters plant response rating,[5]; [17],5
same,"Plant response rating, Lambsquarters",[5]; [22],55
same,"Plant response rating (scale of 0 to 100), Lambsquarters","[5]; Preemergence, 250 g ai/ha",80
same,"Plant response rating, Velvetleaf",[6]; [12],35
same,"Plant response rating, Velvetleaf",[6]; [13],0
same,"Plant response rating, Velvetleaf",[6]; [14],0
same,"Plant response rating, Velvetleaf",[6]; [15],40
same,Velvetleaf plant response rating,[6]; [17],0
same,"Plant response rating, Velvetleaf",[6]; [22],5
same,"Plant response rating (scale of 0 to 100), Velvetleaf","[6]; Preemergence, 250 g ai/ha",35
same,"Plant response rating, Wheat",[7]; [12],0
same,"Plant response rating, Wheat",[7]; [13],0
same,"Plant response rating, Wheat",[7]; [14],0
same,"Plant response rating, Wheat",[7]; [15],0
same,Wheat plant response rating,[7]; [17],0
same,"Plant response rating, Wheat",[7]; [22],0
same,"Plant response rating (scale of 0 to 100), Wheat","[7]; Preemergence, 250 g ai/ha",10
O=C1NCC(c2cccc(C(F)(F)F)c2)C1C(=O)Nc1ccc(F)c(F)c1F (centres unmarked) [Compound 345],"Plant response rating, Chickweed",[1]; [11],30
same,"Plant response rating, Ragweed",[2]; [19],0
same,"Plant response rating, Ragweed",[2]; [20],0
same,Ragweed plant response rating,[2]; [21],0
same,"Crabgrass, Large plant response rating",[3]; [16],95
same,"Crabgrass, Large plant response rating",[3]; [17],98
same,"Plant response rating, Crabgrass, Large",[3]; [22],95
same,"Plant response rating (scale of 0 to 100), Crabgrass, Large","[3]; Preemergence, 250 g ai/ha",98
same,Pigweed plant response rating,[4]; [16],30
same,Pigweed plant response rating,[4]; [17],30
same,"Plant response rating, Pigweed",[4]; [22],65
same,Lambsquarters plant response rating,[5]; [16],100
same,Lambsquarters plant response rating,[5]; [17],75
same,"Plant response rating, Lambsquarters",[5]; [22],85
same,"Plant response rating (scale of 0 to 100), Lambsquarters","[5]; Preemergence, 250 g ai/ha",85
same,Velvetleaf plant response rating,[6]; [17],0
same,"Plant response rating, Velvetleaf",[6]; [22],25
same,Wheat plant response rating,[7]; [17],10
same,"Plant response rating, Wheat",[7]; [22],70
